Where a SMILES comes first, the peptide text is derived from it.
target: T1, LmjIPCS (inositol phosphorylceramide synthase from L. major) (Leishmania major, UniProt E9AFX2); assay: biochemical; type: biochemical; parameters: inhibition: dose or concentration left out as unconfirmed; settings: not given
T1 sequence (E9AFX2 1-338): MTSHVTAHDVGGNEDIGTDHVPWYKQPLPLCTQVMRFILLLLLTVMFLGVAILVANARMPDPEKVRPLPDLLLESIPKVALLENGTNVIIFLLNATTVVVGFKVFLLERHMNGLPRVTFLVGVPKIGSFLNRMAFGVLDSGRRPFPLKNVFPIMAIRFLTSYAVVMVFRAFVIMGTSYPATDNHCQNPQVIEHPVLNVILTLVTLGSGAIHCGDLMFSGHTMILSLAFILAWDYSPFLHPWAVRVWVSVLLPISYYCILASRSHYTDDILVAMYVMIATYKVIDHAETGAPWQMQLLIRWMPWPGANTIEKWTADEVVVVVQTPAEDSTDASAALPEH

SMILES | 20mM inhibition LmjIPCS [%]
CCCCOc1ccc(C(=O)CCN2CCCCC2)cc1 [DYCLONINE] | 61
CC(=O)Oc1ccc(C(c2ccc(OC(C)=O)cc2)c2ccccn2)cc1 [BISACODYL] | 48
Cc1ccccc1N1C(=O)c2cc(S(N)(=O)=O)c(Cl)cc2NC1C (stereo not shown) [METOLAZONE] | 50
O=C(CCCN1CCN(c2ccccn2)CC1)c1ccc(F)cc1 [AZAPERONE] | 35
CN1CCC(OC(c2ccccc2)c2ccccc2)CC1 | 65
COc1ccc2cc1Oc1ccc(cc1)C[C@H]1c3c(cc4c(c3Oc3cc5c(cc3OC)CCN(C)[C@@H]5C2)OCO4)CCN1C [CEPHARANTHINE] | 59
Nc1ccncc1 [AMINOPYRIDINE] | -4.7
C[C@]12CCC3c4ccc(OS(=O)(=O)[O-])cc4CCC3C1CC[C@H]2O.[Na+] (stereo partly shown) [ESTRADIOL-3-SULFATE, SODIUM SALT] | 5.4
NS(=O)(=O)c1cc(C2(O)NC(=O)c3ccccc32)ccc1Cl (stereo not shown) [CHLORTHALIDONE] | 42
Cc1cc2c(C(C)C)c(O)c(O)c(C=O)c2c(O)c1-c1c(C)cc2c(C(C)C)c(O)c(O)c(C=O)c2c1O [GOSSYPOL] | 37
CN1[C@H]2C[C@H](OC(=O)[C@H](CO)c3ccccc3)C[C@@H]1[C@@H](O)C2 [ANISODAMINE] | 16
CCN1CCCC(OC(=O)C(c2ccccc2)c2ccccc2)C1 (stereo not shown) [PIPERIDOLATE] | 39
OCCOCCN1CCN(C(c2ccccc2)c2ccc(Cl)cc2)CC1 (stereo not shown) [HYDROXYZINE PAMOATE] | 45
NC[C@H]1O[C@H](O[C@H]2[C@H](O)[C@@H](O[C@H]3O[C@H](CO)[C@@H](O)[C@H](N)[C@H]3O)[C@H](N)C[C@@H]2N)[C@H](O)[C@@H](O)[C@@H]1O [KANAMYCIN] | 26
N[C@H](C(=O)O)[C@@H]1CC(Cl)=NO1 [ACIVICIN] | 39
C[C@@H]1C[C@H]2[C@@H]3CCC4=CC(=O)C=C[C@]4(C)[C@@]3(F)[C@@H](O)C[C@]2(C)[C@@]1(O)C(=O)CO [DEXAMETHASONE] | 44
O=c1c2ccccc2[se]n1-c1ccccc1 [EBSELEN] | 42
CCN(CC)CCNc1ccc(CO)c2sc3ccccc3c(=O)c12 [HYCANTHONE] | 46
CC1=C(O)C(=O)C=C2C1=CC=C1[C@@]2(C)CC[C@@]2(C)[C@@H]3C[C@](C)(C(=O)O)CC[C@]3(C)CC[C@]12C [CELASTROL] | 54
CC(=O)OCC1=C(C(=O)O)N2C(=O)[C@@H](NC(=O)CSc3ccncc3)[C@H]2SC1 [CEPHAPIRIN] | 47

same assay, conditions: NINDS set screen, single concentration printed as 20mM

SMILES | 20mM inhibition LmjIPCS [%]
CC(C)[N+](C)(CCOC(=O)C1c2ccccc2Oc2ccccc21)C(C)C [PROPANTHELINE BROMIDE] | 35
CN(C)c1ccc(C(=C2C=CC(=[N+](C)C)C=C2)c2ccc(N(C)C)cc2)cc1 [GENTIAN VIOLET] | 64
CS(=O)(=O)OCCCCOS(C)(=O)=O [BUSULFAN] | 44
Cc1cc(C2CCCCC2)n(O)c(=O)c1 [CICLOPIROX OLAMINE] | 66
COc1cc(N)c(Cl)cc1C(=O)NC1CCN(Cc2ccccc2)CC1 [CLEBOPRIDE] | 47
CC(C)=CC1C(C(=O)O)C1(C)C (stereo not shown) [CHRYSANTHEMIC ACID] | 69

same assay, conditions: NINDS set screen; read-out: inhibition LmjIPCS

SMILES | inhibition [%]
OC(CCN1CCCCC1)(c1ccccc1)c1ccccc1 [PRIDINOL] | 27
CC(C)c1nc(N(C)S(C)(=O)=O)nc(-c2ccc(F)cc2)c1/C=C/[C@@H](O)C[C@@H](O)CC(=O)O [ROSUVASTATIN] | 12
COc1cc(C(=O)NCc2ccc(OCCN(C)C)cc2)cc(OC)c1OC [TRIMETHOBENZAMIDE] | 28
CS(=O)(=O)c1ccc(C2=C(c3ccccc3)C(=O)OC2)cc1 [ROFECOXIB] | -2
O=C1CCc2cc(OCCCCc3nnnn3C3CCCCC3)ccc2N1 [CILOSTAZOL] | 14
Cc1cccc(Nc2ccccc2C(=O)O)c1C [MEFENAMIC ACID] | -9
O=c1oc2c(O)c(O)cc3c(=O)oc4c(O)c(O)cc1c4c23 [ELLAGIC ACID] | 22

same assay, conditions: read-out: 20mM inhibition LmjIPCS

SMILES | inhibition at 20000 µM [%]
C[N+](C)(C)CCOP(=O)(O)OP(=O)([O-])OC[C@H]1O[C@@H](n2ccc(N)nc2=O)[C@H](O)[C@@H]1O [CITICOLINE] | 0.108
CN(C)[C@@H]1C(O)=C(C(N)=O)C(=O)[C@@]2(O)C(O)=C3C(=O)c4c(O)cccc4[C@@](C)(O)[C@H]3[C@H](O)[C@@H]12 [OXYTETRACYCLINE] | 18
CC(=O)OCC(=O)[C@@]1(O)[C@H](C)C[C@H]2[C@@H]3CCC4=CC(=O)C=C[C@]4(C)[C@@]3(F)[C@@H](O)C[C@@]21C [DEXAMETHASONE ACETATE] | -3.4
Cn1c(=O)c2[nH]cnc2n(C)c1=O [THEOPHYLLINE] | 11
CC(C)(C)C(=O)C(Oc1ccc(Cl)cc1)n1cncn1 (stereo not shown) [TRIADIMEFON] | 17
CS(=O)(=O)Nc1ccc([N+](=O)[O-])cc1Oc1ccccc1 [NIMESULIDE] | 11
CC(=O)N[C@@H](CC(C)C)C(=O)O [ACETYL-L-LEUCINE] | 8
COCCc1ccc(OCC(O)CNC(C)C)cc1 (stereo not shown) [METOPROLOL] | 21
COc1ccc(OC)c(C(O)CNC(=O)CN)c1 (stereo not shown) [MIDODRINE] | 13
CCCC(=O)Nc1ncnc2c1ncn2[C@@H]1O[C@@H]2COP(=O)(O)O[C@H]2[C@H]1OC(=O)CCC [BUCLADESINE] | -1.88
O=C(/C=C/C=C/c1ccc2c(c1)OCO2)N1CCCCC1 [PIPERINE] | 13
Cc1ccc(Cl)c(Nc2ccccc2C(=O)O)c1Cl [MECLOFENAMATE] | 6
COc1ccccc1OCC(O)CO (stereo not shown) [GUAIFENESIN] | -0.357
S=P(N1CC1)(N1CC1)N1CC1 [THIOTEPA] | 11
C=C(C)[C@@H]1[C@H]2OC(=O)[C@@H]1[C@]1(O)C[C@H]3O[C@]34C(=O)O[C@H]2[C@]14C [PICROTOXININ] | 13
Cc1cccc(C)c1N=C1NCCCS1 [XYLAZINE] | -14
C=C(C)[C@@H]1CC=C(CO)CC1 [PERILLYL ALCOHOL] | 11
CC[C@@]1(O)C[C@H](O)c2c(cc3c(c2O)C(=O)c2c(O)ccc(O)c2C3=O)[C@H]1C(=O)OC [RUTILANTINONE] | 27
C#CC1(O)CC[C@H]2[C@@H]3CCC4=CC(=O)CC[C@@H]4[C@H]3CC[C@@]21CC (mixture of isomers) [NORGESTREL] | 17
C=CCc1ccc2c(c1)OCO2 [SAFROLE] | 1.28
COc1ccc(OC)c(C(O)C(C)N)c1 (stereo not shown) [METHOXAMINE] | 24
CCN1C[C@]2(C)CC[C@H](OC)[C@@]34C1[C@]1(OCO[C@@]15C[C@H](OC)[C@H]1C[C@]3(O)[C@@H]5[C@H]1OC)[C@@H](OC(C)=O)[C@H]24 [DELTALINE] | 22
Nc1ccc(S(=O)(=O)Nc2ccccn2)cc1 [SULFAPYRIDINE] | -1.38
OC[C@@H]1CCCN2CCCC[C@H]12 [LUPININE] | 11
COc1cc([C@@H]2c3cc4c(cc3[C@H](O)[C@H]3COC(=O)[C@@H]23)OCO4)cc(OC)c1OC [PICROPODOPHYLLOTOXIN] | 7.47
CC=CC(=O)N(CC)c1ccccc1C (mixture of isomers) [CROTAMITON] | 22
CCn1cc(C(=O)O)c(=O)c2ccc(C)nc21 [NALIDIXIC ACID] | -11
CCC(N)C(O)c1ccc(O)c(O)c1 (stereo not shown) [ETHYLNOREPINEPHRINE] | -9
CC(=O)OCC(=O)[C@@]1(O)CC[C@H]2[C@@H]3CCC4=CC(=O)CC[C@]4(C)[C@H]3[C@@H](O)C[C@@]21C [HYDROCORTISONE ACETATE] | 7
[O-][n+]1ccccc1S [PYRITHIONE ZINC] | 10

same assay, conditions: read-out: inhibition LmjIPCS

SMILES | inhibition [%]
CCN(CC)CCNC(=O)c1ccc(N)cc1 [PROCAINAMIDE] | 19
Nc1ccn([C@@H]2O[C@H](CO)[C@@H](O)[C@@H]2O)c(=O)n1 [CYTARABINE] | -1.69
COc1c2ccoc2cc2oc(=O)ccc12 [BERGAPTEN] | 17
Cc1noc(NS(=O)(=O)c2ccc(N)cc2)c1C [SULFISOXAZOLE] | 20
COc1cc2c(cc1OC)-c1cc3ccc(OC)c(OC)c3c[n+]1CC2 [PALMATINE CHLORIDE] | 16
COc1cc2c(cc1OC)[C@@H]1Cc3ccc(OC)c(OC)c3CN1CC2 [TETRAHYDROPALMATINE] | 29
O=C(O)CCc1nc(-c2ccccc2)c(-c2ccccc2)o1 [OXAPROZIN] | 5.6
Nc1nc2nc[nH]c2c(=S)[nH]1 [THIOGUANINE] | 6
CC[N+](C)(C)Cc1ccccc1Br [BRETYLIUM] | 14
Nc1ncn([C@@H]2O[C@H](CO)[C@@H](O)[C@H]2O)c(=O)n1 [AZACITIDINE] | 12
C[C@@H]1C[C@H]2[C@@H]3CCC4=CC(=O)C=C[C@]4(C)[C@@]3(F)[C@@H](O)C[C@]2(C)[C@@]1(O)C(=O)CO [DEXAMETHASONE] | -4

same assay, conditions: screening of NINDS set, sheet Screen 1; read-out: inhibition LmjIPCS

SMILES | inhibition [%]
CCOC(=O)C(Cc1ccc(O)cc1)NC(C)=O (stereo not shown) [ACETYL TYROSINE ETHYL ESTER] | 3
CC(=O)NCCCCCC(=O)O [ACEXAMIC ACID] | 6
NC1=NCCN1CC(=O)O [CYCLOCREATINE] | 11
COC(=O)[C@H](Cc1ccccc1)NC(=O)[C@@H](N)CC(=O)O (H-Asp-Phe-OMe) | 10
CC(C)[C@H]1CC[C@H](C(=O)N[C@H](Cc2ccccc2)C(=O)O)CC1 [NATEGLINIDE] | 7
